Reference: patent publication US12083109B2, “Neurokinin antagonists and uses thereof” (California Institute of Technology, priority 2017, dated 2024)
“Also recorded” adds a separate entry of the source. Like-named read-outs stand apart in the source and are kept apart here.

B1: shRNA-2: small hairpin RNA for mouse Tac2 gene (SEQ ID NO: 11, 12), expressed from AAV5-H1-shRNA-CMV-zsGreen (nucleic acid)
chain 1: CCGCCTCAACCCCATAGCAATTAGCTTCCTGTCACTAATTGCTATGGGGTTGAGGCTTTTTT
chain 2: AAAAAAGCCTCAACCCCATAGCAATTAGTGACAGGAAGCTAATTGCTATGGGGTTGAGGCGG
B2: shRNA-1: small hairpin RNA for mouse Tac2 gene (SEQ ID NO: 9, 10), expressed from AAV5-H1-shRNA-CMV-zsGreen (nucleic acid)
chain 1: CCGACGTGGTTGAAGAGAACACCGCTTCCTGTCACGGTGTTCTCTTCAACCACGTCTTTTTT
chain 2: AAAAAAGACGTGGTTGAAGAGAACACCGTGACAGGAAGCGGTGTTCTCTTCAACCACGTCGG

Key:
NK3R = molecular target: T1, NK3R (Homo sapiens, UniProt P29371); details: cited from earlier work; for safety and tolerability in clinical trials: human, Phase I
T1 construct: host or cells: human trial subjects
T1 sequence (P29371 1-465): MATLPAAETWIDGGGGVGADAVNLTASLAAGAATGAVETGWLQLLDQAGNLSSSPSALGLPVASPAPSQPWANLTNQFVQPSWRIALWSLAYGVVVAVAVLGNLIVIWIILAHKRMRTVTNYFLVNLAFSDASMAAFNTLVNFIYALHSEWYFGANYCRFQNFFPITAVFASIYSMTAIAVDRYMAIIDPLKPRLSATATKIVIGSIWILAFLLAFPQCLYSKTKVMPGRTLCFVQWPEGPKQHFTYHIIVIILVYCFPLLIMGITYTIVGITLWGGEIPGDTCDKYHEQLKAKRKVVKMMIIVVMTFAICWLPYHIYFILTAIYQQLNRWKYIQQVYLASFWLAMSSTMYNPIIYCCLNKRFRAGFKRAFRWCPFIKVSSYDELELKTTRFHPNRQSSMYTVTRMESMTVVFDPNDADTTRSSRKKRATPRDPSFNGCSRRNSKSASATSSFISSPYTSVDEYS

Tac2 = assay: Tone fear test, Tac2 shRNA knockdown; format: in vivo, mouse; details: SIS mice
Excerpt: Small hairpin RNA (shRNA) for the mouse Tac2 gene (NM_009312.2) were designed using the online designing tool siDirect 2.0 (http://sidirect2.mai.jp/) (Naito et al., 2009; incorporated by reference in its entirety).
8-16 week old mice were anesthetized with isoflurane and mounted in a stereotaxic apparatus (Kopf Instruments). Anesthesia was maintained throughout surgery at 1-1.5% isoflurane. The skull was exposed and small burr holes produced dorsal to each injection site using a stereotaxic mounted drill. Virus was backfilled into pulled fine glass capillaries (˜50 μm diameter at tip) and pressure injections of 300 nl were made bilaterally into either the dBNSTa (AP +0.25, ML ±0.85, DV −4.1), DMH (AP −1.3, ML±0.35, DV −5.6), or CeA (AP −1.4, ML ±2.6, DV −4.73) at a rate of 30nl per minute using a nanoliter injector (Nanoliter 2000, World Precision Instruments) controlled by an ultra microsyringe pump (Micro4, World Precision Instruments). Capillaries remained in place for 5 minutes following injections to allow for full diffusion of virus and to reduce backflow up the injection tract. Skin above the skull was then drawn together and sealed with GLUture (Zoetis). For bilateral cannula implantations, single or double guide cannulas (custom, Plastics One) aimed 0.5 mm above each region were implanted and held in place with dental cement (Parkell). Compatible dummy cannulas with a 0.5 mm protrusion at the tip were inserted to prevent cannula clogging. Directly following surgery, mice were given a subcutaneous injection of ketoprofen (2 mg/kg) and supplied with drinking water containing 400 mg/L sulphamethoxazole and 200 mg/L ibuprofen and monitored for 7 days. Dummies were replaced every 2-3 days to keep cannula tracts clean. All injections were subsequently verified histologically.
The protocol for tone trace fear conditioning was performed as previously described (Cushman et al., 2014; incorporated by reference in its entirety) using fear conditioning boxes previously described in detail (Haubensak et al., 2010; Kunwar et al., 2015; incorporated by reference in their entirety). Briefly, mice were transported in squads of four on a white cart to a novel behavioral testing room containing 4 sound-attenuating fear-conditioning chambers (Med Associates). This “training context” was comprised of flat grid flooring (wired to a shock generator and scrambler for footshock delivery, Med Associates), houselights, and the presence of an internal fan for background noise. Chambers were sprayed with 70% Simple Green solution on the underlying chamber pan to generate a unique contextual scent and chambers were cleaned with 70% EtOH between squads. […]

Row | Molecule | efficacy in schizophrenia, bipolar and panic disorder (NK3R; human clinical trials) | efficacy in schizophrenia and major depressive disorder (NK3R; human trials, Phase II/III) | safety and tolerability in clinical trials (NK3R) | safety and tolerability in clinical trials (NK3R; listed as Osanetant) | acute (during) freezing to conditioned tone (Tac2; AAV shRNA in dBNSTa) | freezing to conditioned tone (Tac2; AAV shRNA in CeA) | persistent (post) freezing to conditioned tone (Tac2; AAV shRNA in dBNSTa)
1 | CC(=O)N(C)C1(c2ccccc2)CCN(CCC[C@]2(c3ccc(Cl)c(Cl)c3)CCCN(C(=O)c3ccccc3)C2)CC1 [osanetant, N-(1-{3-[(3R)-1-benzoyl-3-(3,4-dichlorophenyl)piperidin-3-yl]propyl}-4-phenylpiperidin-4-yl)-N-methylacetamide] | lack of efficacy | lack of efficacy | safe and well-tolerated | well tolerated; also recorded: exhibited safety |  |  | 
2 | B1 |  |  |  |  | additionally reduced; also recorded: significantly reduced |  | 
3 | B2 |  |  |  |  | had no effect | blocked | blocked; also recorded: strongly reduced
